# Biological target: T1, phosphodiesterase 4B1 (PDE 4B1) (Homo sapiens, UniProt Q07343)
# T1 construct: gene PDE4B; PDE 4B1 (BPS Biosciences)
# Experiment: PDELight bioluminescent cAMP phosphodiesterase assay, % inhibition at […]
# Format: biochemical
# Settings: read-out: PDE 4B1 inhibition (%) ± SEM
# T1 sequence (Q07343 whole entry): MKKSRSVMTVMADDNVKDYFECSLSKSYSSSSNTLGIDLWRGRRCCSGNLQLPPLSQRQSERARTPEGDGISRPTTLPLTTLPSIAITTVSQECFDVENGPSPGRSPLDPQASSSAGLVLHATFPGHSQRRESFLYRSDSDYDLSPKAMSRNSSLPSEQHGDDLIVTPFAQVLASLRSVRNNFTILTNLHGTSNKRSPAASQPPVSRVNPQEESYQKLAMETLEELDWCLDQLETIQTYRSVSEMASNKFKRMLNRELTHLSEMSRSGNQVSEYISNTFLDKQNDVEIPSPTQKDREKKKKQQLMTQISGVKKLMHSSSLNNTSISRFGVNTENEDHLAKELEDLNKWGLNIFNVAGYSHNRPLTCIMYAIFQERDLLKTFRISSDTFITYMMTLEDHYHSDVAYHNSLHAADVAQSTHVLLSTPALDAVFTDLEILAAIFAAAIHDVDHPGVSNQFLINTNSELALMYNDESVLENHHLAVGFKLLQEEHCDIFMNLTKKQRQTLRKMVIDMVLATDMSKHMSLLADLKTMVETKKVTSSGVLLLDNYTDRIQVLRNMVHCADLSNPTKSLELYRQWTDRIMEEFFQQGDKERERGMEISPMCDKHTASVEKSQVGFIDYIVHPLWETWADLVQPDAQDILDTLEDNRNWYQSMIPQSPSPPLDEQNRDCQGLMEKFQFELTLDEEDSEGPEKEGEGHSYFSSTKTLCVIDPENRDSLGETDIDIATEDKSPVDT
inhibition at 100 µM [%],Structure (SMILES),inhibition at 50 µM [%]
31 ± 0.5,Nc1nc(N)nc(-c2cc(Cl)ccc2Cl)n1 [Irsogladine],–
–,COc1ccc(C2CNC(=O)C2)cc1OC1CCCC1 (centres unmarked) [Rolipram],95

# Source: publication PMC5209447, “Aryl-1,3,5-triazine ligands of histamine H4 receptor attenuate inflammatory and nociceptive response to carrageen, zymosan and lipopolysaccharide” (Inflammation Research, 2016)
